Values after ≈ are worked out from the molar mass of the structure shown. Active and inactive are the calls of the source. No cut-off for these calls is given here.
Columns and labels:
Assay type in all cases: functional
[1] = tested on: Stenotrophomonas maltophilia; experiment: Antimicrobial activity against Stenotrophomonas maltophilia 1AC736 assessed as number of passages required for MIC to rise above 4 times original MIC
Pseudomonas aeruginosa [2] = experiment: Antimicrobial activity against mexAB-oprM, mexCD-oprJ, mexEF-oprN, mexJK, mexXY, opmH and pscC gene deficient Pseudomonas aeruginosa PAO750 by broth dilution method
Acinetobacter baumannii = experiment: Antimicrobial activity against Acinetobacter baumannii HPA74510 assessed as number of passages required for MIC to rise above 4 times original MIC
Pseudomonas aeruginosa [3] = experiment: Antimicrobial activity against Pseudomonas aeruginosa 527 assessed as number of passages required for MIC to rise above 4 times original MIC
Acinetobacter junii = experiment: Antimicrobial activity against Acinetobacter junii 15218 assessed as number of passages required for MIC to rise above 4 times original MIC
Pseudomonas aeruginosa [4] = experiment: Antimicrobial activity against mexAB-oprM protein and mexCD-oprJ deficient Pseudomonas aeruginosa PAO253 overexpressing MexEF-OprN gene by broth dilution method
Pseudomonas aeruginosa [5] = experiment: Antimicrobial activity against mexAB-oprM protein and mexCD-oprJ deficient Pseudomonas aeruginosa PAO238 by broth dilution method
Klebsiella pneumoniae = experiment: Antimicrobial activity against Klebsiella pneumoniae 1338665 assessed as number of passages required for MIC to rise above 4 times original MIC
Pseudomonas aeruginosa [6] = experiment: Antimicrobial activity against mexAB-oprM protein and mexZ deficient Pseudomonas aeruginosa PAO267 by broth dilution method
Pseudomonas aeruginosa [7] = experiment: Antimicrobial activity against Pseudomonas aeruginosa BA assessed as number of passages required for MIC to rise above 4 times original MIC

SMILES: O=C(O)c1cn(C2CC2)c2cc(N3CCNCC3)c(F)cc2c1=O [CIPROFLOXACIN]
- Activity [1]: inactive
- MIC (Pseudomonas aeruginosa [2]): ≤ 0.06 µg/mL
- Activity (Acinetobacter baumannii): inactive
- Activity (Pseudomonas aeruginosa [3]): 3 passages
- Activity (Acinetobacter junii): 12 passages
- MIC (Pseudomonas aeruginosa [4]): 1 µg/mL (≈ 3.02 µM)
- MIC (Pseudomonas aeruginosa [5]): ≤ 0.06 µg/mL
- Activity (Klebsiella pneumoniae): inactive
- MIC (Pseudomonas aeruginosa [6]): ≤ 0.06 µg/mL
- Activity (Pseudomonas aeruginosa [7]): 2 passages

Source: ChEMBL document CHEMBL1255477, “In vitro properties of BAL30072, a novel siderophore sulfactam with activity against multiresistant gram-negative bacilli” (Antimicrob Agents Chemother, 2010)
